In patent US8288374B2, “Medicinal composition containing benzo[a]phenoxazine compound as the active ingredient for prevention or treatment of protozoal disease” (Hoshi University, priority 2008, dated 2012):
≈ marks a conversion by molar mass, not a printed value. Where two headings read alike, the source gives them in different places.

Experiments:
Rat L6 cells = assay: Growth inhibition test of rat L6 cells; format: cell-based
Protocol: Rat derived-L6 cells (rat skeletal myoblast cell) were used. A medium, RPMI1640 medium was supplemented so that L-glutamin (200 mM) is 1%, and fetal bovine serum 10%, and the medium was cultured under CO2 concentration 5%, at 37° C.
The compounds of the present invention and the control drugs to be used in the test were dissolved in DMSO, to make a test solution of a predetermined concentration.
Pre-culture was conducted and medium containing cells which have entered the logarithmic growth phase was taken to wells of a 96-well culture plate. Then, a test solution containing drug of a predetermined concentration or a drug-free DMSO was added. Test solutions were taken by duplicates.
Culture plate was cultured for 72 hours in an incubator, to test the growth inhibition activity. Test was conducted as follows. 10 μL of Alamar Blue aqueous solution was added to each well, and the resultant was further cultured for 2 hours. Next, the culture plate was placed on a fluorescent micro-plate reader (Spectramax Gemeni XS; US Molecular Device), radiated at an excited wavelength of 536 nm. Fluorescent intensity was measured at 588 nm, and residual rate of L6 cells of the test solution added group, and that of the control was calculated.
Growth inhibition rate (%)={(C−A)/(B−A)}×100 • A: Primary cell count • B: cell count of control, 3 days after • C: cell count of wells added with a sample, 3 days after 4. Determination of Drug Efficacy Against Chloroquine Resistant-Plasmodium

[1] = system: Plasmodium berghei NK65 strain; assay: Cure test by oral administration to mice infected with malaria; format: in vivo; details: for inhibition in vivo at 100 mg/kg: Plasmodium berghei, infected ICR mice, suppression vs control; for inhibition in vivo at 100 mg/kg / Days of survival: oral, 1 dose, 100 mg/kg; for Effectiveness in the in vivo malaria test, in words: oral administration to mice infected with rodent malaria; for Days of survival: mean days to death minus that of control mice
Protocol: In this experiment, rodent malaria parasites (the Plasmodium berghei NK65 strain) were used.
The infected blood to be used was subcultured in ICR female SPF mice infected by intraperitoneal or tail vein administration at 4 to 6 weeks old (20 to 26 g). […] Thereafter, based on the number of red cells (cells/ml) and the rate of infection by the protozoans, the blood was diluted with phys'iological saline such that a density of […] malaria parasites/1 ml dose was attained. This was used for infection of uninfected mice (ICR female mice, 5 weeks old) in an amount of 0.2 ml/20 g body weight, through the tail vein (Day-0). The compound used in the test was dissolved in 10% DMSO solution (a mixture of 1 ml of DMSO and 9 ml of 5% glucose solution).
Each group contained 4 mice, and the compound was orally administered to the mice 24 hours after their infection with malaria (Day-1), in an amount calculated such that 100 mg of the compound was administered per 1 kg of the body weight of a mouse. On the other hand, in terms of cases in which the amount was calculated such that 30 mg of the compound was administered per 1 kg of the body weight of a mouse, the oral administration was carried out a total of three times, that is, 24 hours (Day-1), 48 hours (Day-2) and 72 hours (Day-3) after the infection of malaria.
Blood was collected from the tails of each mouse 96 hours (Day-4) and 144 hours (Day-6) after the infection with malaria, and thin blood films were prepared. Under the microscope, the numbers of infection of malaria parasites in the group to which the compound was administered and the control group (to which the compound was not administered) were measured, and the rates of infection with malaria parasites (Parasitemia) were calculated.
From the rate of infection with malaria parasites calculated as above, the cure rate (Suppression) in the case of administration of the drug was calculated according to the following equation. Cure rate: Suppression (%)=(B−A)/B×100
A: Rate of infection with the protozoans in a mouse to which the present test compound was administered
B: Rate of infection with the parasites in a control mouse (to which the compound was not administered) Days of survival: MSD (day)=C−D
C: the average number of days from the date of infection with malaria to the date of death in the mice to which the present test compound was administered
D: The average number of days from the date of infection with malaria to the date of death in the 4 individuals of control mice (to which the compound was not administered)
Further, by observation of changes in the body weight, hair glossiness and the like of each mouse, side effects such as acute toxicity due to administration of the compound were evaluated.

[2] = system: Leishmania donovani (MHOM/ET/67/L82 strain); assay: Leishmania protozoa growth inhibition screening test; format: cell-based
Protocol: In the present experiment, Leishmania donovani (MHOM/ET/67/L82 strain) was used. Protozoa was subcultured in Syrian Golden hamster, from which an amastigote was obtained. In the experiment, SM medium supplemented with 10% heat-treated bovine fetal serum was used, which was adjusted to pH 5.4, and cultured in an atmosphere of 5% CO2 concentration, at 37° C.
The compounds of the present invention to be used in the present test and the positive control drug (miltefosine) were dissolved in DMSO to make a test solution of a predetermined concentration.
After adding a medium containing a predetermined number of protozoa to wells of a 96-well culture'plate and pre-treating, concentration of the amastigote was measured with CASY cell analysis system (Scharfe, Germany). Then, test solution containing a drug of a predetermined concentration or a drug-free DMSO was added. Test solutions were taken by duplicates.
After culturing the culture plate for 72 hours in an incubator, growth inhibition activity was tested. Test was conducted as follows. 10 μL of Alamar Blue aqueous solution was added to each well, and the resultant was further cultured for 2 hours. Next, the culture plate was placed on a fluorescent micro-plate reader (Spectramax Gemeni XS; US Molecular Device), radiated at an excited wavelength of 536 nm. Fluorescent intensity was measured at 588 nm, and infection rate of leishmania protozoa of the test solution added group and control was calculated.
Growth inhibition rate (%)={1−(b−a)/(c−a)}×100 • a: early infection rate • b: infection rate when test solution was added • c: infection rate of the control

[3] = Table 2, unit inferred, 72 hours, read-out: Cytoxicity L6
[4] = 96 h, read-out: Cure rate (%) Day-4
[5] = 144 h, read-out: Cure rate (%) Day-6
[6] = Table 6, unit inferred, read-out: Leishmania donovani

Compound	EC50 (Rat L6 cells; [3]) [µg/mL]	inhibition in vivo at 100 mg/kg [1, 4] [%]	inhibition in vivo at 100 mg/kg [1, 5] [%]	Effectiveness in the in vivo malaria test, in words [1]	Days of survival [1] [days]	EC50 [2, 6] [µg/mL]	EC50 (Rat L6 cells; Table 1, 72 hours, Alamar Blue, read-out: 50% Growth inhibition concentration Cytoxicity L6) [µg/mL]	EC50 ([2]; Leishmania donovani, Table 5, amastigotes, 72 hours, Alamar Blue, read-out: 50% Growth inhibition concentration Leishmania donovani) [µg/mL]
CCN(CCNS(C)(=O)=O)c1cc(C)c2nc3c4ccccc4c(=Nc4ccncc4)cc-3oc2c1 [Compound 1R, N-Ethyl-N-(2-methansulfonamidylethyl)-11-methyl-5-(pyridine-4-ylimino)-5H-benzo[a]phenoxazin-9-amine]	7.97 (≈ 15.9 µM)	100	95.7	excellent cure effects	15.7	3.92 (≈ 7.81 µM)	–	–
CCN(CCNS(C)(=O)=O)c1cc(C)c2nc3c4ccccc4c(=Nc4ccccn4)cc-3oc2c1 [Compound 1S, N-Ethyl-N-(2-methansulfonamidylethyl)-11-methyl-5-(pyridine-2-ylimino)-5H-benzo[a]phenoxazin-9-amine]	0.307 (≈ 0.612 µM)	100	100	excellent cure effects	11.3	2.09 (≈ 4.17 µM)	–	–
CCN(CC)c1ccc2nc3c4ccccc4c(=Nc4ccc5ccccc5n4)cc-3oc2c1 [Compound 1H, N,N-Diethyl-5-(quinolin-2-ylimino)-5H-benzo[a]phenoxazin-9-amine]	–	81	71	–	4.3	–	30.1 (≈ 67.8 µM)	1.25 (≈ 2.81 µM)
